For one assay, the system named is INS1. Briefly: INS-1E survival protection against cytokine death – cell-based, luminescence, retest, dose response (AID 449756).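 Also: cell death triggered by IL-1 beta plus TNF-alpha plus IFN-gamma mixture; protective hits raise ATP signal compared with cytokine alone wells.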 It counts as functional. The following applies: Rattus norvegicus.
The next assay deals with T1, Aminopeptidase N (Plasmodium falciparum FcB1/Columbia, UniProt O96935).
T1 sequence (O96935 whole entry): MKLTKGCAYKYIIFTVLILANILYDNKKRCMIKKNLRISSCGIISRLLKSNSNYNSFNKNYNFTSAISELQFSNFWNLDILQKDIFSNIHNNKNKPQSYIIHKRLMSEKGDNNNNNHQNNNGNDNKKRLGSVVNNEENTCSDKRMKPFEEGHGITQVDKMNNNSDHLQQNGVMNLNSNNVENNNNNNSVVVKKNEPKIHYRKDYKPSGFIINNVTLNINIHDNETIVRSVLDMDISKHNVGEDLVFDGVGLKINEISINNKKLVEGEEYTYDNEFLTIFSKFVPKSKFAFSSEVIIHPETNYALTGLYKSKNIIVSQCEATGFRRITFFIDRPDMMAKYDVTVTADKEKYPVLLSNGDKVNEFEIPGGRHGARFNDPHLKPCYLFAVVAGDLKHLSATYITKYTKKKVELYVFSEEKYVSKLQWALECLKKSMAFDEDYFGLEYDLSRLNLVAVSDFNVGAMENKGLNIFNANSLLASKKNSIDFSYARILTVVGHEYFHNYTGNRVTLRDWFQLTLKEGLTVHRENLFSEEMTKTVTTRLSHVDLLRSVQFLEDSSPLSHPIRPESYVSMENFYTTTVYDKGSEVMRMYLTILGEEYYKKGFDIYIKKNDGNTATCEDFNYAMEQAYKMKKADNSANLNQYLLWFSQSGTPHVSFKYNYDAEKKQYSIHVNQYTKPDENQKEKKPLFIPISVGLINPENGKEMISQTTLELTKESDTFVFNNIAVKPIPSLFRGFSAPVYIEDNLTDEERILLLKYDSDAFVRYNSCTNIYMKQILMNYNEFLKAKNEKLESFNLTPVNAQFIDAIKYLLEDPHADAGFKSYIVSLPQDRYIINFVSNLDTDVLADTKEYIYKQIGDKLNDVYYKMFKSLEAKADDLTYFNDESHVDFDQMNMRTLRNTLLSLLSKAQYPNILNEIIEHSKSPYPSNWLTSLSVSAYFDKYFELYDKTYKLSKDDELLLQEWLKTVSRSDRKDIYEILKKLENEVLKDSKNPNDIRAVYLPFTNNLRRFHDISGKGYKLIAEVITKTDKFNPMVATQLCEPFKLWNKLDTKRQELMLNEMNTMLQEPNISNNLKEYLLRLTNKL
Briefly: malaria alanyl aminopeptidase activity blockers – biochemical, fluorogenic H-Leu-NHMec substrate, 1536-well (AID 1445). The arrangement: species or system Plasmodium falciparum 3D7, 3D7.

In ChEMBL document CHEMBL1201862, “PubChem BioAssay data set” (2004) one finds AC50 and IC50 data, which are given here for 2 molecules.

SMILES strings stand for the structures. The source made the active and inactive calls.

`CCCCCCCCCCOC(=O)Cn1c(COc2ccccc2)[n+](C)c2ccccc21`: in the assay with INS1, the AC50 was 3.72 µM (active).
With `N#Cc1c(NC(=O)c2ccc(Br)o2)n(-c2ccccc2)c2nc3ccccc3nc12`, the IC50 on Aminopeptidase N is 22.9 µM (active).
